Values quoted from earlier work as cited in paper PMC10904332 (Science (New York, N.Y.), 2022).

Conditions: known resistance mechanisms

## bacitracin
  MIC increase from resistance mechanisms: > 254 fold
